Data: patent US9637507B2, “Process for the preparation of liquid tin(II) alkoxides” (CHIANG MAI UNIVERSITY, priority 2012, dated 2017)

What was measured:
[1] = literature solids; cited from earlier work
[2] = Storage of liquid tin(II) alkoxides under nitrogen or argon; details: stored under a nitrogen or argon atmosphere
[3] = Solubility test of tin(II) alkoxides in organic solvents; assay type: physicochemical; details: liquid tin(II) alkoxides; temperature range of 25-38° C.

Compound	Stability (moisture, oxygen, colour change) [1]	Storage stability (reactivity) [2]	Solubility in common organic solvents [3]
CC[O][Sn][O]CC [Tin(II) ethoxide, reference compound]	turned yellow rapidly, even when the product was dried and kept under vacuum	–	–
CCCC[O-].CCCC[O-].[Sn+2] [Tin(II) n-butoxide, tin(II) n-butoxide]	extremely moisture and oxygen sensitive	without any significant effect on their reactivity	–
tin(II) n-hexoxide	–	–	soluble in common organic solvents
tin(II) n-octoxide	–	–	soluble in common organic solvents
